What was measured:
[1] = Liquid, Vibrating tube method
[2] = molar heat capacity at constant pressure; details: 101 kPa, Liquid, Small sample (50 mg) DSC
[3] = xn = mol fraction of the nth substance listed; details: Liquid, Vibrating tube method, x2 = 0
[4] = molar heat capacity at constant pressure; xn = mol fraction of the nth substance listed; details: 101 kPa, Liquid, Small sample (50 mg) DSC, x2 = 0

C=C1CCC2CC1C2(C)C (stereo not drawn) [β-pinene]
mass density [kg/m3], [1]
Details | 283.15 K | 298.15 K | 313.15 K | 328.15 K | 343.15 K | 358.15 K
20000 kPa | 891.3 | 880.2 | 869.3 | 858.2 | 847.7 | 837
25000 kPa | 894.2 | 883.3 | 872.6 | 861.7 | 851.4 | 840.9
30000 kPa | 897 | 886.3 | 875.7 | 865.2 | 855 | 844.8
35000 kPa | 899.9 | 889.3 | 878.8 | 868.7 | 858.6 | 848.7
40000 kPa | 902.6 | 892.2 | 882 | 872.2 | 862.1 | 852.6

[2]
Details | molar heat capacity at constant pressure [J/K/mol]
313.16 K | 249.31
318.16 K | 252.03
323.16 K | 254.76
328.22 K | 257.48
333.22 K | 260.21
338.19 K | 262.93
343.18 K | 265.66
348.15 K | 268.38
353.18 K | 271.11
358.15 K | 273.83
363.18 K | 277.92
368.17 K | 280.64
373.21 K | 283.37
378.2 K | 284.73
383.17 K | 287.45
388.2 K | 290.18
393.17 K | 292.9
398.2 K | 295.63
403.19 K | 299.71
408.16 K | 302.44
413.19 K | 303.8
418.19 K | 306.53

C=C1CCC2CC1C2(C)C (stereo not drawn) [β-pinene] + CC1=CC[C@H]2C[C@@H]1C2(C)C
mass density [kg/m3], [3]
Details | 283.15 K | 298.15 K | 313.15 K | 328.15 K | 343.15 K | 358.15 K
20000 kPa | 891.3 | 880.2 | 869.3 | 858.2 | 847.7 | 837
25000 kPa | 894.2 | 883.3 | 872.6 | 861.7 | 851.4 | 840.9
30000 kPa | 897 | 886.3 | 875.7 | 865.2 | 855 | 844.8
35000 kPa | 899.9 | 889.3 | 878.8 | 868.7 | 858.6 | 848.7
40000 kPa | 902.6 | 892.2 | 882 | 872.2 | 862.1 | 852.6

[4]
Details | molar heat capacity at constant pressure [J/K/mol]
313.16 K | 249.31
318.16 K | 252.03
323.16 K | 254.76
328.22 K | 257.48
333.22 K | 260.21
338.19 K | 262.93
343.18 K | 265.66
348.15 K | 268.38
353.18 K | 271.11
358.15 K | 273.83
363.18 K | 277.92
368.17 K | 280.64
373.21 K | 283.37
378.2 K | 284.73
383.17 K | 287.45
388.2 K | 290.18
393.17 K | 292.9
398.2 K | 295.63
403.19 K | 299.71
408.16 K | 302.44
413.19 K | 303.8
418.19 K | 306.53

CC1=CC[C@H]2C[C@@H]1C2(C)C [(S)-2-pinene]
mass density [kg/m3], [1]
Details | 283.15 K | 298.15 K | 313.15 K | 328.15 K | 343.15 K | 358.15 K
20000 kPa | 880 | 868.8 | 858 | 846.7 | 835.9 | 825
25000 kPa | 883.2 | 872.1 | 861.3 | 850.4 | 839.7 | 829.2
30000 kPa | 886.3 | 875.3 | 864.7 | 854 | 843.8 | 833.3
35000 kPa | 889.4 | 878.6 | 867.9 | 857.5 | 847.7 | 837.4
40000 kPa | 892.5 | 881.9 | 871.3 | 861.1 | 851.4 | 841.5

[2]
Details | molar heat capacity at constant pressure [J/K/mol]
313.16 K | 250.67
318.16 K | 252.03
323.16 K | 256.12
328.22 K | 257.48
333.22 K | 260.21
338.19 K | 264.29
343.18 K | 267.02
348.15 K | 269.74
353.18 K | 272.47
358.15 K | 275.19
363.18 K | 277.92
368.17 K | 279.28
373.21 K | 282
378.2 K | 284.73
383.17 K | 287.45
388.2 K | 291.54
393.17 K | 292.9
398.2 K | 294.27
403.19 K | 296.99
408.16 K | 299.71
413.19 K | 301.08
418.19 K | 303.8

Reference: the NIST ThermoML archive (doi:10.1016/j.jct.2012.09.012)
